Laboratory results taken from US10376520B2, “Methods for the treatment of cardiovascular disorders” (Galapagos NV, priority 2015, dated 2019).

System: Subjects With Active Crohn's Disease
Experiment: LDL determination, Study 5 (Crohn's disease)
Format: in vivo, human
Conditions: for [LDL] Median CFB - 10 weeks results: 200 mg q.d. (N = 130)
Source text: Double-Blind, Randomized, Placebo-Controlled, Multi-Centre Study to Investigate the Efficacy and Safety of Compound 1 in Subjects With Active Crohn's Disease With Evidence of Mucosal Ulceration.
This is a double-blind, randomized, placebo-controlled, multi-centre Phase 2 study to investigate the efficacy and safety of Compound 1 administered once daily for the treatment of active CD with evidence of mucosal ulceration. The pharmacokinetics (including a PK substudy) and pharmacodynamics of Compound 1 and metabolite in CD will also be characterised.
A total of 180 eligible subjects will be randomized to receive Compound 1 or placebo in addition to their stable background treatment (eg, corticosteroids, aminosalicylates, or CD-related antibiotics). The study will consist of 2 parts, with total treatment duration of 20 weeks. Randomization in Part 1 will be stratified according the subject's previous anti-TNF exposure/response, CRP level at Screening, and oral corticosteroid use at visit Day −1.
After the first 10 weeks of treatment in Part 1, patients will be re-randomized for Part 2 as shown in the diagram below and will be stratified according to the subject's clinical response, previous anti-TNF exposure/response, and oral corticosteroid use at visit Day −1.
The following assays were conducted at Eurofins Global Central Laboratory, Bergschot 71, 4817 PA Breda, The Netherlands, and at Quest Diagnostics, Clinical Trials, Quest House, 125-135 Staines Road, Hounslow, Middlesex, TW3 3JB, United Kingdom. The assays for Study 5 were performed at BARC Europe, 3B, Industrie Park, Zwijnaarde, B-9052 Ghent, Belgium.
The determination of [LDL]-cholesterol is made using an automated method taking advantage of the selective micellary solubilization of [LDL]-cholesterol by a nonionic detergent and the interaction of a sugar compound and lipoproteins (VLDL and chylomicrons).
When a detergent is included in the enzymatic method for cholesterol determination (cholesterol esterase, cholesterol oxidase coupling reaction), the relative reactivities of cholesterol in the lipoprotein fractions increase in this order: [HDL]<chylomicrons <VLDL <[LDL]. In the presence of Mg^2+, a sugar compound markedly reduces the enzymatic reaction of the cholesterol measurement in VLDL and chylomicrons. The combination of a sugar compound with detergent enables the selective determination of [LDL]-cholesterol in serum. (Friedewald et al., 1972; Rifai et al., 1992)
Homogeneous enzymatic colorimetric assay.
In the presence of peroxidase, the hydrogen peroxide generated reacts with 4-aminoantipyrine and Sodium N-(2-hydroxy-3-sulfopropyl)-3,5-dimethoxyaniline (HSDA) to form a purple-blue dye.
The color intensity of this dye is directly proportional to the cholesterol concentration and is measured photometrically.
Human serum and plasma samples [LDL] determination was done on a Roche/Hitachi Cobas c 701/702 system which automatically calculate the analyte concentration of each sample. Samples containing precipitates are centrifuged before performing the assay.

[1] = 200 mg q.d. continued to week 20, week 2
[2] = 200 mg q.d. continued to week 20, week 4
[3] = 200 mg q.d. continued to week 20, week 6
[4] = 200 mg q.d. continued to week 20, week 10
[5] = 200 mg q.d. continued to week 20, week 12
[6] = 200 mg q.d. continued to week 20, week 16
[7] = 200 mg q.d. continued to week 20, week 20
[8] = 200 mg q.d. week 0 to 10, then 100 mg q.d. (N = 30), week 2
[9] = 200 mg q.d. week 0 to 10, then 100 mg q.d. (N = 30), week 4
[10] = 200 mg q.d. week 0 to 10, then 100 mg q.d. (N = 30), week 6
[11] = 200 mg q.d. week 0 to 10, then 100 mg q.d. (N = 30), week 10
[12] = 200 mg q.d. week 0 to 10, then 100 mg q.d. (N = 30), week 12
[13] = 200 mg q.d. week 0 to 10, then 100 mg q.d. (N = 30), week 16
[14] = 200 mg q.d. week 0 to 10, then 100 mg q.d. (N = 30), week 20
[15] = 200 mg q.d. week 0 to 10, then placebo (N = 23), week 2
[16] = 200 mg q.d. week 0 to 10, then placebo (N = 23), week 4
[17] = 200 mg q.d. week 0 to 10, then placebo (N = 23), week 6
[18] = 200 mg q.d. week 0 to 10, then placebo (N = 23), week 10
[19] = 200 mg q.d. week 0 to 10, then placebo (N = 23), week 12
[20] = 200 mg q.d. week 0 to 10, then placebo (N = 23), week 16
[21] = 200 mg q.d. week 0 to 10, then placebo (N = 23), week 20
[22] = 200 mg q.d. week 0 to 10, to 100 mg q.d. week 10 to 20, week 2
[23] = 200 mg q.d. week 0 to 10, to 100 mg q.d. week 10 to 20, week 4
[24] = 200 mg q.d. week 0 to 10, to 100 mg q.d. week 10 to 20, week 6
[25] = 200 mg q.d. week 0 to 10, to 100 mg q.d. week 10 to 20, week 10
[26] = 200 mg q.d. week 0 to 10, to 100 mg q.d. week 10 to 20, week 12

Compound: O=C(Nc1nc2cccc(-c3ccc(CN4CCS(=O)(=O)CC4)cc3)n2n1)C1CC1 [Compound 1, cyclopropanecarboxylic acid {5-[4-(1,1-dioxo-thiomorpholin-4-ylmethyl)-phenyl]-[1,2,4]triazolo[1,5-a]pyridin-2yl}-amide]
- [LDL] Median CFB - 10 weeks results (week 2): -0.050 mmol/L
- [LDL] Median CFB - 10 weeks results (week 4): -0.050 mmol/L
- [LDL] Median CFB - 10 weeks results (week 6): 0.025 mmol/L
- [LDL] Median CFB - 10 weeks results (week 10): 0.160 mmol/L
- [LDL] Mean CFB - 20 weeks results [1]: 3.14%
- [LDL] Median CFB - 20 weeks results [1]: −2.51%
- [LDL] Mean CFB - 20 weeks results [2]: 1.21%
- [LDL] Median CFB - 20 weeks results [2]: −2.16%
- [LDL] Mean CFB - 20 weeks results [3]: 0.73%
- [LDL] Median CFB - 20 weeks results [3]: −0.61%
- [LDL] Mean CFB - 20 weeks results [4]: 14.77%
- [LDL] Median CFB - 20 weeks results [4]: 8.26%
- [LDL] Mean CFB - 20 weeks results [5]: 9.98%
- [LDL] Median CFB - 20 weeks results [5]: 5.42%
- [LDL] Mean CFB - 20 weeks results [6]: 12.35%
- [LDL] Median CFB - 20 weeks results [6]: 7.42%
- [LDL] Mean CFB - 20 weeks results [7]: 11.56%
- [LDL] Median CFB - 20 weeks results [7]: 6.93%
- [LDL] Mean CFB - 20 weeks results [8]: -0.02 mmol/L
- [LDL] Median CFB - 10 weeks results 20 weeks results [8]: -0.05 mmol/L
- [LDL] Mean CFB - 20 weeks results [9]: 0.00 mmol/L
- [LDL] Median CFB - 10 weeks results 20 weeks results [9]: -0.10 mmol/L
- [LDL] Mean CFB - 20 weeks results [10]: 0.00 mmol/L
- [LDL] Median CFB - 10 weeks results 20 weeks results [10]: 0.04 mmol/L
- [LDL] Mean CFB - 20 weeks results [11]: 0.10 mmol/L
- [LDL] Median CFB - 10 weeks results 20 weeks results [11]: 0.17 mmol/L
- [LDL] Mean CFB - 20 weeks results [12]: 0.10 mmol/L
- [LDL] Median CFB - 10 weeks results 20 weeks results [12]: 0.19 mmol/L
- [LDL] Mean CFB - 20 weeks results [13]: 0.01 mmol/L
- [LDL] Median CFB - 10 weeks results 20 weeks results [13]: -0.05 mmol/L
- [LDL] Mean CFB - 20 weeks results [14]: 0.01 mmol/L
- [LDL] Median CFB - 10 weeks results 20 weeks results [14]: 0.04 mmol/L
- [LDL] Mean CFB - 20 weeks results [15]: 0.037 mmol/L
- [LDL] Median CFB - 10 weeks results 20 weeks results [15]: 0.02 mmol/L
- [LDL] Mean CFB - 20 weeks results [16]: -0.017 mmol/L
- [LDL] Median CFB - 10 weeks results 20 weeks results [16]: 0.05 mmol/L
- [LDL] Mean CFB - 20 weeks results [17]: 0.085 mmol/L
- [LDL] Median CFB - 10 weeks results 20 weeks results [17]: 0.09 mmol/L
- [LDL] Mean CFB - 20 weeks results [18]: 0.077 mmol/L
- [LDL] Median CFB - 10 weeks results 20 weeks results [18]: 0.03 mmol/L
- [LDL] Mean CFB - 20 weeks results [19]: 0.105 mmol/L
- [LDL] Median CFB - 10 weeks results 20 weeks results [19]: 0.12 mmol/L
- [LDL] Mean CFB - 20 weeks results [20]: 0.222 mmol/L
- [LDL] Median CFB - 10 weeks results 20 weeks results [20]: 0.08 mmol/L
- [LDL] Mean CFB - 20 weeks results [21]: 0.205 mmol/L
- [LDL] Median CFB - 10 weeks results 20 weeks results [21]: 0.11 mmol/L
- [LDL] Mean CFB - 20 weeks results [22]: 2.17%
- [LDL] Median CFB - 20 weeks results [22]: −1.37%
- [LDL] Mean CFB - 20 weeks results [23]: 4.07%
- [LDL] Median CFB - 20 weeks results [23]: −1.98%
- [LDL] Mean CFB - 20 weeks results [24]: 2.59%
- [LDL] Median CFB - 20 weeks results [24]: 1.25%
- [LDL] Mean CFB - 20 weeks results [25]: 5.40%
- [LDL] Median CFB - 20 weeks results [25]: 7.46%
- [LDL] Mean CFB - 20 weeks results [26]: 5.91%
- [LDL] Median CFB - 20 weeks results [26]: 6.39%
